Results reported in US8716326B2, “Isoindolinone derivatives, preparation method thereof and a pharmaceutical composition comprising same” (Korea Research Institute of Chemical Technology, priority 2009, dated 2014).

Test system: Runx2
Assay: Runx2 activity, 6xOSE2-Luc luciferase reporter in transfected C2C12 cells
Format: cell-based, Mouse
Conditions: Mus musculus, 24 hrs, read-out: luciferase activity relative to control set as 1
Protocol: Mouse premyoblast cell (C2C12 cell) was transfected using receptor vector 6xOSE2-Luc in order to investigate the activity of the amide compound of the present invention on Runx2.
Specifically, the receptor vector 6xOSE2-Luc was prepared by inserting an artificial promoter linked by six tandem copies of the OSE2 (osteoblast specific element-2) into vector pGL3 (Promega; Madison, Wis., U.S.A.), and then, cloned into the C2C12 cell to be transfected (Kim et al., Journal of Cellular Biochemistry, 91: 1239-1247, 2004). The OSE2 is the binding site of Runx2 in the promoter of osteocalcin which is a bone marker.
C2C12 cells (5,000 cells/well) were plated onto 96-well plates using 10% FBS (fetal bovine serum; Hyclone)-containing DMEM (Dulbecco's Modified Eagle's Medium), the medium was replaced with 5% FBS-containing DMEM after 24 hrs, and treated with each of the amide compounds obtained in Examples 1 to 94 at various concentrations of 2.5 μM, 5.0 μM, 10 μM, and 20 μM. As a control, dimethyl sulfoxide (DMSO) vehicle was applied to the cell in an amount same as that of the amide compound. After 24 hrs, the luciferase activity in the cell lysate was measured by using Dual-Luciferase Reporter Assay System (Promega). The luciferase activity of the amide compound of the present invention was calculated as a value relative to that observed for the control which was set as 1.

NC(=O)c1cccc(-c2cccc3c2CN(Cc2ccc(C(=O)Nc4ccccc4N)cc2)C3=O)c1 [Example 26, 3-[2-(4-[(2-aminophenyl)carbamoyl]phenylmethyl)-1-oxo-2,3-dihydro-1H-isoindol-4-yl]benzamide]
fold induction at 2.5 µM: 1.6 | fold induction at 5 µM: 2.3 | fold induction at 10 µM: 4.4 | fold induction at 20 µM: 18.4

Cc1ccc(-c2cccc3c2CN(Cc2ccc(C(=O)Nc4ccccc4N)cc2)C3=O)cc1F [Example 27, N-(2-aminophenyl)-4-((4-(3-fluoro-4-methylphenyl)-1-oxoisoindolin-2-yl)methyl)benzamide]
fold induction at 2.5 µM: 9.9 | fold induction at 5 µM: 17.5 | fold induction at 10 µM: 22.5 | fold induction at 20 µM: 20.3

CC(C)(C)c1ccc(-c2cccc3c2CN(Cc2ccc(C(=O)Nc4ccccc4N)cc2)C3=O)cc1 [Example 28, 4-((4-(4-tert-butylphenyl)-1-oxoisoindolin-2-yl)methyl)-N-(2-aminophenyl)benzamide]
fold induction at 2.5 µM: 4.6 | fold induction at 5 µM: 7.7 | fold induction at 10 µM: 14.3 | fold induction at 20 µM: 23.7

Nc1ccccc1NC(=O)c1ccc(CN2Cc3c(cccc3-c3ccc(Oc4ccccc4)cc3)C2=O)cc1 [Example 29, N-(2-aminophenyl)-4-((1-oxo-4-(4-phenoxyphenyl)isoindolin-2-yl)methyl)benzamide]
fold induction at 2.5 µM: 3.4 | fold induction at 5 µM: 5.6 | fold induction at 10 µM: 10.5 | fold induction at 20 µM: 10

Nc1ccccc1NC(=O)c1ccc(CN2Cc3c(cccc3-c3ccc(F)cc3)C2=O)cc1 [Example 30, N-(2-aminophenyl)-4-((4-(4-fluorophenyl)-1-oxoisoindolin-2-yl)methyl)benzamide]
fold induction at 2.5 µM: 13.5 | fold induction at 5 µM: 20.5 | fold induction at 10 µM: 28.8 | fold induction at 20 µM: 30.4

COc1cc2c(c(-c3ccccc3)c1OC)CN(CCCCCC(=O)Nc1ccccc1N)C2=O [Example 31, N-(2-aminophenyl)-6-(5,6-dimethoxy-1-oxo-4-phenylisoindolin-2-yl)hexanamide]
fold induction at 2.5 µM: 12.2 | fold induction at 5 µM: 21.2 | fold induction at 10 µM: 26.2 | fold induction at 20 µM: 29.3

COc1cc2c(c(-c3cc(C)cc(C)c3)c1OC)CN(CCCCCC(=O)Nc1ccccc1N)C2=O [Example 32, N-(2-aminophenyl)-6-(5,6-dimethoxy-4-(3,5-dimethylphenyl)-1-oxoisoindolin-2-yl)hexanamide]
fold induction at 2.5 µM: 4.4 | fold induction at 5 µM: 9.2 | fold induction at 10 µM: 18.5 | fold induction at 20 µM: 23.8

COc1cc2c(c(-c3cccnc3)c1OC)CN(CCCCCC(=O)Nc1ccccc1N)C2=O [Example 33, N-(2-aminophenyl)-6-(5,6-dimethoxy-1-oxo-4-(pyridin-3-yl)isoindolin-2-yl)hexanamide]
fold induction at 2.5 µM: 1.8 | fold induction at 5 µM: 3.4 | fold induction at 10 µM: 10 | fold induction at 20 µM: 29

COc1cc2c(c(-c3cc(F)cc(F)c3)c1OC)CN(CCCCCC(=O)Nc1ccccc1N)C2=O [Example 34, N-(2-aminophenyl)-6-(4-(3,5-difluorophenyl)-5,6-dimethoxy-1-oxoisoindolin-2-yl)hexanamide]
fold induction at 2.5 µM: 3.7 | fold induction at 5 µM: 7.4 | fold induction at 10 µM: 18 | fold induction at 20 µM: 23

COc1cc2c(c(-c3ccc(C(F)(F)F)cc3)c1OC)CN(CCCCCC(=O)Nc1ccccc1N)C2=O [Example 35, N-(2-aminophenyl)-6-(4-(4-(trifluoromethyl)phenyl)-5,6-dimethoxy-1-oxoisoindolin-2-yl)hexanamide]
fold induction at 2.5 µM: 2.9 | fold induction at 5 µM: 6.7 | fold induction at 10 µM: 14.2 | fold induction at 20 µM: 22.3

Nc1ccccc1NC(=O)CCCCCN1Cc2c(Br)cccc2C1=O [Example 36, N-(2-aminophenyl)-6-(4-bromo-1-oxoisoindolin-2-yl)hexanamide]
fold induction at 2.5 µM: 2.1 | fold induction at 5 µM: 3 | fold induction at 10 µM: 8 | fold induction at 20 µM: 13

Nc1ccccc1NC(=O)CCCCCN1Cc2c(cccc2-c2ccccc2)C1=O [Example 37, N-(2-aminophenyl)-6-(1-oxo-4-phenylisoindolin-2-yl)hexanamide]
fold induction at 2.5 µM: 1.6 | fold induction at 5 µM: 2.6 | fold induction at 10 µM: 6.8 | fold induction at 20 µM: 12.5

Nc1ccccc1NC(=O)CCCCCN1Cc2c(cccc2-c2cccnc2)C1=O [Example 38, N-(2-aminophenyl)-6-(1-oxo-4-(pyridin-3-yl)isoindolin-2-yl)hexanamide]
fold induction at 2.5 µM: 3 | fold induction at 5 µM: 8.2 | fold induction at 10 µM: 23 | fold induction at 20 µM: 43.3

COc1ccc(-c2cccc3c2CN(CCCCCC(=O)NO)C3=O)c(OC)c1 [Example 39, N-hydroxy-6-(4-(2,4-dimethoxyphenyl)-1-oxoisoindolin-2-yl)hexanamide]
fold induction at 2.5 µM: 1.4 | fold induction at 5 µM: 2.1 | fold induction at 10 µM: 5.3 | fold induction at 20 µM: 25.6

COc1ccc(-c2cccc3c2CN(CCCCCC(=O)NO)C3=O)cc1OC [Example 40, N-hydroxy-6-(4-(3,4-dimethoxyphenyl)-1-oxoisoindolin-2-yl)hexanamide]
fold induction at 2.5 µM: 1.1 | fold induction at 5 µM: 1.1 | fold induction at 10 µM: 1.7 | fold induction at 20 µM: 1.6

Cc1cc(C)cc(-c2cccc3c2CN(CCCCCC(=O)NO)C3=O)c1 [Example 41, N-hydroxy-6-(4-(3,5-dimethylphenyl)-1-oxoisoindolin-2-yl)hexanamide]
fold induction at 2.5 µM: 2.5 | fold induction at 5 µM: 4.6 | fold induction at 10 µM: 12.4 | fold induction at 20 µM: 28

O=C(CCCCCN1Cc2c(cccc2-c2cc(F)cc(F)c2)C1=O)NO [Example 42, 6-(4-(3,5-difluorophenyl)-1-oxoisoindolin-2-yl)-N-hydroxyhexanamide]
fold induction at 2.5 µM: 3.1 | fold induction at 5 µM: 10.8 | fold induction at 10 µM: 22.3 | fold induction at 20 µM: 17.9

O=C(CCCCCN1Cc2c(cccc2-c2cccnc2)C1=O)NO [Example 43, N-hydroxy-6-(1-oxo-4-(pyridin-3-yl)isoindolin-2-yl)hexanamide]
fold induction at 2.5 µM: 1.1 | fold induction at 5 µM: 1.3 | fold induction at 10 µM: 1.8 | fold induction at 20 µM: 3.2

O=C(CCCCCN1Cc2c(cccc2-c2ccc(C(F)(F)F)cc2)C1=O)NO [Example 44, 6-(4-(4-(trifluoromethyl)phenyl)-1-oxoisoindolin-2-yl)-N-hydroxyhexanamide]
fold induction at 2.5 µM: 1.2 | fold induction at 5 µM: 1.2 | fold induction at 10 µM: 1.3 | fold induction at 20 µM: 1.4

Nc1ccc(-c2cccs2)cc1NC(=O)CCCCCN1Cc2c(cccc2-c2cncnc2)C1=O [Example 47, N-(2-amino-5-(thiophen-2-yl)phenyl)-6-(1-oxo-4-(pyrimidin-5-yl)isoindolin-2-yl)hexanamide]
fold induction at 2.5 µM: 1.1 | fold induction at 5 µM: 1.2 | fold induction at 10 µM: 1.3 | fold induction at 20 µM: 1.6

COc1cc2c(c(-c3cccnc3)c1OC)CN(Cc1ccc(C(=O)Nc3cc(-c4cccs4)ccc3N)cc1)C2=O [Example 48, N-(2-amino-5-(thiophen-2-yl)phenyl)-4-((5,6-dimethoxy-1-oxo-4-(pyridin-3-yl)isoindolin-2-yl)methyl)benzamide]
fold induction at 2.5 µM: 3.7 | fold induction at 5 µM: 7.2 | fold induction at 10 µM: 11.4 | fold induction at 20 µM: 14.3

O=C(CCCCCN1Cc2cc(-c3ccccc3)ccc2C1=O)NO [Example 49, N-hydroxy-6-(1-oxo-5-phenylisoindolin-2-yl)hexanamide]
fold induction at 2.5 µM: 4.8 | fold induction at 5 µM: 10.6 | fold induction at 10 µM: 28.1 | fold induction at 20 µM: 26.5

COc1ccc(-c2ccc3c(c2)CN(CCCCCC(=O)NO)C3=O)c(OC)c1 [Example 50, N-hydroxy-6-(5-(2,4-dimethoxyphenyl)-1-oxoisoindolin-2-yl)hexanamide]
fold induction at 2.5 µM: 1.9 | fold induction at 5 µM: 5 | fold induction at 10 µM: 22.1 | fold induction at 20 µM: 42.7

COc1ccc(-c2ccc3c(c2)CN(CCCCCC(=O)NO)C3=O)cc1OC [Example 51, N-hydroxy-6-(5-(3,4-dimethoxyphenyl)-1-oxoisoindolin-2-yl)hexanamide]
fold induction at 2.5 µM: 1.2 | fold induction at 5 µM: 2.1 | fold induction at 10 µM: 10.4 | fold induction at 20 µM: 26.4

Cc1cc(C)cc(-c2ccc3c(c2)CN(CCCCCC(=O)NO)C3=O)c1 [Example 52, N-hydroxy-6-(5-(3,5-dimethylphenyl)-1-oxoisoindolin-2-yl)hexanamide]
fold induction at 2.5 µM: 2.4 | fold induction at 5 µM: 4.7 | fold induction at 10 µM: 12.6 | fold induction at 20 µM: 20.4

O=C(CCCCCN1Cc2cc(-c3cc(F)cc(F)c3)ccc2C1=O)NO [Example 53, 6-(5-(3,5-difluorophenyl)-1-oxoisoindolin-2-yl)-N-hydroxyhexanamide]
fold induction at 2.5 µM: 1.7 | fold induction at 5 µM: 3 | fold induction at 10 µM: 5.6 | fold induction at 20 µM: 13.3
